Test results published in patent US7704995B2 (Exelixis, Inc., priority 2003, dated 2010).

Molecular target: T1, Chk1 (Homo sapiens, UniProt O14757)
T1 construct: purchased Upstate Biotechnology
T1 sequence (O14757 1-476): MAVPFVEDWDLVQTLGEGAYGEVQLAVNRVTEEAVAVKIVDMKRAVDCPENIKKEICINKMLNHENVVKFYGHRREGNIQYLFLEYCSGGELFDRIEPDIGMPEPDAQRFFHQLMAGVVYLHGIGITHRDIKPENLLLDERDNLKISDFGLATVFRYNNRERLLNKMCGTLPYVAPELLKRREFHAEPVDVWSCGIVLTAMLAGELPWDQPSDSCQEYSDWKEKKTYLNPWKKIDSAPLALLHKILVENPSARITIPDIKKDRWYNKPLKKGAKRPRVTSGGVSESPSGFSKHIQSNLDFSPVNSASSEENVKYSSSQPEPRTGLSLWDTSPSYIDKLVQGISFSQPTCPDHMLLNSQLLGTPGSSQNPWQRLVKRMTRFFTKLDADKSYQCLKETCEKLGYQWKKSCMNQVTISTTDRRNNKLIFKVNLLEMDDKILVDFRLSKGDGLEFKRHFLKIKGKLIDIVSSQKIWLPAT
Experiment: Chk1 kinase assay: incorporation of γ-33P ATP into immobilized myelin basic protein
Assay type: biochemical
Details: read-out: Chk1 IC50
How it was run: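 Plates coated with MBP, then kinase reactions in Hepes pH 7.6 buffer with 10 mM MgCl2 and 1% DMSO were started by adding unlabeled plus γ-33P ATP (10 μM for Chk1 at 10 nM enzyme; 30 μM for Chk2 at 20 nM enzyme). After 1 h at room temperature, plates were washed and counted.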

SMILES	IC50 [nM]
CNC(=O)c1nc(-c2cccc(CNC(=O)c3ccc(Cl)cc3)c2)cnc1N [Example 309, 3-amino-6-[3-({[(4-chlorophenyl)carbonyl]amino}methyl)phenyl]-N-methylpyrazine-2-carboxamide]	50 to 1000
CNC(=O)c1nc(-c2cccc(CNC(=O)c3cc(F)ccc3F)c2)cnc1N [Example 310, 3-amino-6-[3-({[(2,5-difluorophenyl)carbonyl]amino}methyl)phenyl]-N-methylpyrazine-2-carboxamide]	50 to 1000
CNC(=O)c1nc(-c2cccc(CNC(=O)c3ccc4ccccc4c3)c2)cnc1N [Example 311, 3-amino-N-methyl-6-(3-{[(naphthalen-2-ylcarbonyl)amino]methyl}phenyl)pyrazine-2-carboxamide]	50 to 1000
CNC(=O)c1nc(-c2cccc(CSCc3ccccc3)c2)cnc1N [Example 312, 3-amino-N-methyl-6-(3-{[(phenylmethyl)thio]methyl}phenyl)pyrazine-2-carboxamide]	50 to 1000
CNC(=O)c1nc(-c2cccc(CS(=O)(=O)Cc3ccccc3)c2)cnc1N [Example 313, 3-amino-N-methyl-6-(3-{[(phenylmethyl)sulfonyl]methyl}phenyl)pyrazine-2-carboxamide]	50 to 1000
CNC(=O)c1nc(-c2cccc(COCc3ccccc3)c2)cnc1N [Example 314, 3-amino-N-methyl-6-(3-{[(phenylmethyl)oxy]methyl}phenyl)pyrazine-2-carboxamide]	50 to 1000
CNC(=O)c1nc(-c2cccc(CNCc3ccccc3)c2)cnc1N [Example 315, 3-amino-N-methyl-6-(3-{[(phenylmethyl)amino]methyl}phenyl)pyrazine-2-carboxamide]	50 to 1000
CNC(=O)c1nc(-c2cccc(C(=O)NCc3cc(F)c(F)c(F)c3)c2)cnc1N [Example 316, 3-amino-N-methyl-6-[3-({[(3,4,5-trifluorophenyl)methyl]amino}carbonyl)phenyl]pyrazine-2-carboxamide]	50 to 1000
CNC(=O)c1nc(-c2cccc(NC(=O)OCC3c4ccccc4-c4ccccc43)c2)cnc1N [Example 317, 9H-fluoren-9-ylmethyl (3-{5-amino-6-[(methylamino)carbonyl]pyrazin-2-yl}phenyl)carbamate]	1000 to 10000
CNC(=O)c1nc(-c2cccc(NC(=O)OCc3ccccc3)c2)cnc1N [Example 318, phenylmethyl (3-{5-amino-6-[(methylamino)carbonyl]pyrazin-2-yl}phenyl)carbamate]	50 to 1000
CCOC(=O)Nc1cccc(-c2cnc(N)c(C(=O)NC)n2)c1 [Example 319, ethyl (3-{5-amino-6-[(methylamino)carbonyl]pyrazin-2-yl}phenyl)carbamate]	50 to 1000
CNC(=O)c1nc(-c2cccc(CNC(=O)c3ccc(Cl)c(Cl)c3)c2)cnc1N [Example 320, 3-amino-6-[3-({[(3,4-dichlorophenyl)carbonyl]amino}methyl)phenyl]-N-methylpyrazine-2-carboxamide]	50 to 1000
CNC(=O)c1nc(-c2cccc(NC(=O)OC(C)(C)C)c2)cnc1N [Example 321, 1,1-dimethylethyl (3-{5-amino-6-[(methylamino)carbonyl]pyrazin-2-yl}phenyl)carbamate]	1000 to 10000
CNC(=O)c1nc(-c2cccc(NC(=O)O[C@@H]3C[C@H](C)CC[C@H]3C(C)C)c2)cnc1N [Example 322, (1R,2S,5R)-5-methyl-2-(1-methylethyl)cyclohexyl (3-{5-amino-6-[(methylamino)carbonyl]pyrazin-2-yl}phenyl)carbamate]	≥ 10000
CNC(=O)c1nc(-c2cccc(C(=O)NCc3ccc(O)cc3)c2)cnc1N [Example 323, 3-amino-6-[3-({[(4-hydroxyphenyl)methyl]amino}carbonyl)phenyl]-N-methylpyrazine-2-carboxamide]	50 to 1000
CNC(=O)c1nc(-c2cccc(C(=O)NCc3ccc(OCCN4CCOCC4)cc3)c2)cnc1N [Example 324, 3-amino-N-methyl-6-(3-{[({4-[(2-morpholin-4-ylethyl)oxy]phenyl}methyl)amino]carbonyl}phenyl)pyrazine-2-carboxamide]	50 to 1000
CNC(=O)c1nc(-c2cccc(C(=O)NCc3ccccc3OC)c2)cnc1N [Example 325, 3-amino-N-methyl-6-{3-[({[2-(methyloxy)phenyl]methyl}amino)carbonyl]phenyl}pyrazine-2-carboxamide]	50 to 1000
CNC(=O)c1nc(-c2cccc(C(=O)NCc3cccc(O)c3)c2)cnc1N [Example 326, 3-amino-6-[3-({[(3-hydroxyphenyl)methyl]amino}carbonyl)phenyl]-N-methylpyrazine-2-carboxamide]	50 to 1000
CNC(=O)c1nc(-c2cccc(C(=O)NCc3ccccc3O)c2)cnc1N [Example 327, 3-amino-6-[3-({[(2-hydroxyphenyl)methyl]amino}carbonyl)phenyl]-N-methylpyrazine-2-carboxamide]	50 to 1000
CNC(=O)c1nc(-c2cccc(C(=O)NNc3ccccc3)c2)cnc1N [Example 328, 3-amino-N-methyl-6-{3-[(2-phenylhydrazino)carbonyl]phenyl}pyrazine-2-carboxamide]	< 50
CNC(=O)c1nc(-c2cccc(CNC(=O)Cc3ccccc3)c2)cnc1N [Example 330, 3-amino-N-methyl-6-(3-{[(phenylacetyl)amino]methyl}phenyl)pyrazine-2-carboxamide]	50 to 1000
CNC(=O)c1nc(-c2cccc(CNC(=O)Cc3ccc(Cl)cc3)c2)cnc1N [Example 331, 3-amino-6-[3-({[(4-chlorophenyl)acetyl]amino}methyl)phenyl]-N-methylpyrazine-2-carboxamide]	50 to 1000
CNC(=O)c1nc(-c2cccc(CNC(=O)c3ccc(-c4ccccc4)cc3)c2)cnc1N [Example 332, 3-amino-6-(3-{[(biphenyl-4-ylcarbonyl)amino]methyl}phenyl)-N-methylpyrazine-2-carboxamide]	< 50
CNC(=O)c1nc(-c2cccc(CNC(=O)c3cc(C(F)(F)F)ccc3Cl)c2)cnc1N [Example 333, 3-amino-6-{3-[({[2-chloro-5-(trifluoromethyl)phenyl]carbonyl}amino)methyl]phenyl}-N-methylpyrazine-2-carboxamide]	50 to 1000
CNC(=O)c1nc(-c2cccc(CNC(=O)c3cc4ccccc4[nH]3)c2)cnc1N [Example 334, N-[(3-{5-amino-6-[(methylamino)carbonyl]pyrazin-2-yl}phenyl)methyl]-1H-indole-2-carboxamide]	50 to 1000
CNC(=O)c1nc(-c2cccc(CNC(=O)c3ncccc3O)c2)cnc1N [Example 335, 3-amino-6-[3-({[(3-hydroxypyridin-2-yl)carbonyl]amino}methyl)phenyl]-N-methylpyrazine-2-carboxamide]	50 to 1000
CNC(=O)c1nc(-c2cccc(CNC(=O)Cc3c[nH]c4ccccc34)c2)cnc1N [Example 336, 3-amino-6-(3-{[(1H-indol-3-ylacetyl)amino]methyl}phenyl)-N-methylpyrazine-2-carboxamide]	50 to 1000
CNC(=O)c1nc(-c2cccc(C(=O)NCc3cc(F)ccc3F)c2)cnc1N [Example 337, 3-amino-6-[3-({[(2,5-difluorophenyl)methyl]amino}carbonyl)phenyl]-N-methylpyrazine-2-carboxamide]	50 to 1000
